Molecules are shown by their SMILES.

One may read the T/C as the ratio of treated to control. The IC50 is the concentration that inhibits the measured activity by half. A lower IC50 goes with greater potency. The Ki is a measure of affinity in units of concentration, obtained from inhibition or displacement. High values mean lower affinity, low ones higher affinity.

The test system of assay [1] is Mus musculus. Kind of assay: Average E0771 solid murine mammary tumor volume in BDF1 female mice (n=5) at 24 mg/kg at 14 day post treatment point; Expressed as % T/C. It is filed as functional.
The species named for assay [2] is Mus musculus. Kind of assay: (§1) Inhibition of growth in L1210 murine leukemia cells in culture expressed as IC50 (nM). The assay is classed as functional, cell-based.
The test system of assay [3] is Mus musculus. Kind of assay: Average E0771 solid murine mammary tumor volume in BDF1 female mice (n=5) at 24 mg/kg at 10 day post treatment point. It is filed as functional.
Assay [4] deals with Mus musculus. Description: Average E0771 solid murine mammary tumor volume in BDF1 female mice (n=3) at 36 mg/kg at 14 day post treatment point.
The test system of assay [5] is Mus musculus. Description: Average E0771 solid murine mammary tumor volume in BDF1 female mice (n=3) at 36 mg/kg at 21 day post treatment point.
Assay [6] deals with Mus musculus. Description: Average E0771 solid murine mammary tumor volume in BDF1 female mice (n=5) at 24 mg/kg at 21 day post treatment point; Expressed as % T/C. It is filed as functional.
Assay [7] has as its system Mus musculus. Kind of assay: Average E0771 solid murine mammary tumor volume in BDF1 female mice (n=5) at 36 mg/kg at 14 day post treatment point; Expressed as % T/C. The assay is classed as functional.
A further assay has as its target T1, Dihydrofolate reductase (Mus musculus, UniProt P00375).
T1 sequence (P00375 whole entry): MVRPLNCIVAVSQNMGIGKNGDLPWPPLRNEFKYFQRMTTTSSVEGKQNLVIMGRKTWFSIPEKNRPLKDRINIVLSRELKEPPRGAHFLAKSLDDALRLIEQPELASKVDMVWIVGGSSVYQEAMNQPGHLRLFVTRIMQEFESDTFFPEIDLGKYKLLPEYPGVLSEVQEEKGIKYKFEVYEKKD
Description: Inhibition of Dihydrofolate reductase (DHFR) enzyme derived from L1210 cells expressed as Ki (pM). The assay is classed as cell-based.

Assay [8] relates to Mus musculus. Kind of assay: Average E0771 solid murine mammary tumor volume in BDF1 female mice (n=5) at 36 mg/kg at 10 day post treatment point. The assay is classed as functional.
Assay [9] relates to Mus musculus. Description: Average E0771 solid murine mammary tumor volume in BDF1 female mice (n=5) at 36 mg/kg at 10 day post treatment point; Expressed as % T/C. The assay is classed as functional.
Assay [10] has as its system Mus musculus. Kind of assay: Average E0771 solid murine mammary tumor volume in BDF1 female mice (n=5) at 36 mg/kg at 21 day post treatment point; Expressed as % T/C. The assay is classed as functional.
Assay [11] concerns Mus musculus. Kind of assay: Average E0771 solid murine mammary tumor volume in BDF1 female mice (n=5) at 24 mg/kg at 10 day post treatment point; Expressed as % T/C. The assay is classed as functional.
Assay [12] concerns Mus musculus. Kind of assay: Average E0771 solid murine mammary tumor volume in BDF1 female mice (n=5) at 24 mg/kg at 21 day post treatment point. It is filed as functional.
Assay [13] deals with Mus musculus. Kind of assay: Average E0771 solid murine mammary tumor volume in BDF1 female mice (n=5) at 24 mg/kg at 14 day post treatment point. The assay is classed as functional.
Assay [14] is filed under the species Mus musculus. Description: (§2) Transport influx which is determined by competitive binding for the transport protein; expressed as Ki (uM). It is filed as functional, organism-based.
Assay [15] concerns L1210. The assay is described as §1. The assay is classed as functional, cell-based. To be noted: Mus musculus.
The target in assay [16] is L1210. The assay is described as §2. The assay is classed as functional, cell-based, Mus musculus.
Assay [17] concerns Mus musculus. Kind of assay: Average E0771 solid murine mammary tumor volume in BDF1 female mice (n=5) at 3 mg/kg at 21 day post treatment point; Expressed as % T/C. It is filed as functional.
Assay [18] concerns Mus musculus. Description: Average E0771 solid murine mammary tumor volume in BDF1 female mice (n=5) at 9 mg/kg at 10 day post treatment point. It is filed as functional.
In assay [19] the test system is Mus musculus. Description: Average E0771 solid murine mammary tumor volume in BDF1 female mice (n=5) at 6 mg/kg at 10 day post treatment point; Expressed as % T/C. The assay is classed as functional.
The subject of assay [20] is Mus musculus. Kind of assay: Average E0771 solid murine mammary tumor volume in BDF1 female mice (n=5) at 3 mg/kg at 10 day post treatment point; Expressed as % T/C. It is filed as functional.
Assay [21] has as its system Mus musculus. Kind of assay: Average E0771 solid murine mammary tumor volume in BDF1 female mice (n=5) at 6 mg/kg at 10 day post treatment point. It is filed as functional.
For assay [22], the system named is Mus musculus. Kind of assay: Average E0771 solid murine mammary tumor volume in BDF1 female mice (n=5) at 3 mg/kg at 10 day post treatment point. The assay is classed as functional.
In assay [23] the test system is Mus musculus. Kind of assay: Average E0771 solid murine mammary tumor volume in BDF1 female mice (n=5) at 9 mg/kg at 14 day post treatment point. It is filed as functional.
Assay [24] deals with Mus musculus. Kind of assay: Average E0771 solid murine mammary tumor volume in BDF1 female mice (n=5) at 3 mg/kg at 14 day post treatment point; Expressed as % T/C. It is filed as functional.
Assay [25] has as its system Mus musculus. Kind of assay: Average E0771 solid murine mammary tumor volume in BDF1 female mice (n=5) at 6 mg/kg at 21 day post treatment point. The assay is classed as functional.
The subject of assay [26] is Mus musculus. Description: Average E0771 solid murine mammary tumor volume in BDF1 female mice (n=5) at 6 mg/kg at 14 day post treatment point. The assay is classed as functional.
Assay [27] has as its system Mus musculus. Description: Average E0771 solid murine mammary tumor volume in BDF1 female mice (n=5) at 6 mg/kg at 21 day post treatment point; Expressed as % T/C. The assay is classed as functional.
Assay [28] has as its system Mus musculus. Kind of assay: Average E0771 solid murine mammary tumor volume in BDF1 female mice (n=5) at 9 mg/kg at 10 day post treatment point; Expressed as % T/C. It is filed as functional.
The test system of assay [29] is Mus musculus. Kind of assay: Average E0771 solid murine mammary tumor volume in BDF1 female mice (n=5) at 9 mg/kg at 14 day post treatment point; Expressed as % T/C. It is filed as functional.
For assay [30], the system named is Mus musculus. Kind of assay: Average E0771 solid murine mammary tumor volume in BDF1 female mice (n=5) at 9 mg/kg at 21 day post treatment point. The assay is classed as functional.
The test system of assay [31] is Mus musculus. Description: Average E0771 solid murine mammary tumor volume in BDF1 female mice (n=5) at 3 mg/kg at 14 day post treatment point. It is filed as functional.
Assay [32] deals with Mus musculus. Kind of assay: Average E0771 solid murine mammary tumor volume in BDF1 female mice (n=5) at 6 mg/kg at 14 day post treatment point; Expressed as % T/C. The assay is classed as functional.
Assay [33] concerns Mus musculus. Description: Average E0771 solid murine mammary tumor volume in BDF1 female mice (n=5) at 9 mg/kg at 21 day post treatment point; Expressed as % T/C. It is filed as functional.
The test system of assay [34] is Mus musculus. Description: Average E0771 solid murine mammary tumor volume in BDF1 female mice (n=5) at 3 mg/kg at 21 day post treatment point. It is filed as functional.

Take `C#CCC(Cc1cnc2nc(N)nc(N)c2n1)c1ccc(C(=O)NC(CCC(=O)O)C(=O)O)cc1` (configuration not stated): the T/C with Mus musculus [1] stood at 2%; with Mus musculus [6] it was 10%; in the assay on Mus musculus [7], 1%; in the assay on Mus musculus [9], 31%; in the assay with Mus musculus [10] it was 1%; in the assay with Mus musculus [11], 47%. In the assay listed under Mus musculus [2], this compound showed an IC50 of 2 nM. Also, the Average tumor volume in the assay on Mus musculus [3] is recorded as 62 mm**3; with Mus musculus [4] it was 6 mm**3; in the assay with Mus musculus [5] it was 21 mm**3; in the assay with Mus musculus [8], 48 mm**3; with Mus musculus [12], 204 mm**3; in the assay on Mus musculus [13] it was 19 mm**3. Further, the Ki is 0.0182 nM on Dihydrofolate reductase and 450 nM in the assay filed under Mus musculus [14].
`CC(Cc1cnc2nc(N)nc(N)c2n1)c1ccc(C(=O)NC(CCC(=O)O)C(=O)O)cc1` (configuration not stated): the IC50 in the assay listed under Mus musculus [2] worked out at 1.34 nM. Besides, the Ki at Dihydrofolate reductase was 0.0041 nM; in the assay filed under Mus musculus [14], 950 nM.
Turning to `CCCCCC(Cc1cnc2nc(N)nc(N)c2n1)c1ccc(C(=O)NC(CCC(=O)O)C(=O)O)cc1` (configuration not stated), the IC50 in the assay with L1210 [15] was 251 nM. Besides, the values for the Ki at Dihydrofolate reductase and at L1210 [16] were above 1 nM and 1000 nM, respectively.
Take `Nc1nc(N)c2nc(CCc3ccc(C(=O)N[C@@H](CCC(=O)O)C(=O)O)cc3)cnc2n1`: in the assay filed under Mus musculus [2], the IC50 stood at 1.8 nM. Further, the inhibitory constant (Ki) at Dihydrofolate reductase worked out at 0.0036 nM; in the assay listed under Mus musculus [14], 900 nM.
Regarding `CN(Cc1cnc2nc(N)nc(N)c2n1)c1ccc(C(=O)N[C@@H](CCC(=O)O)C(=O)O)cc1` [METHOTREXATE], the T/C is given as 61% in the assay on Mus musculus [17]; 26% in the assay with Mus musculus [19]; 86% with Mus musculus [20]; 15% in the assay with Mus musculus [24]; 18% with Mus musculus [27]; 3% in the assay with Mus musculus [28]. Besides, the T/C in the assay on Mus musculus [29] came to 2%; with Mus musculus [32], 2%; in the assay on Mus musculus [33], 15%. Further, the Average tumor volume was 4 mm**3 in the assay with Mus musculus [18]; 34 mm**3 in the assay on Mus musculus [21]; 113 mm**3 with Mus musculus [22]; 19 mm**3 in the assay with Mus musculus [23]; 382 mm**3 in the assay with Mus musculus [25]; 19 mm**3 in the assay on Mus musculus [26]. Further, the Average tumor volume with Mus musculus [30] amounted to 310 mm**3; in the assay with Mus musculus [31] it was 187 mm**3; in the assay on Mus musculus [34] it was 1260 mm**3. Besides, the IC50 in the assay with L1210 [15] came to 9.5 nM. In the assay filed under Mus musculus [14], this compound returned a Ki of 4200 nM.
Compound `CCCC(Cc1cnc2nc(N)nc(N)c2n1)c1ccc(C(=O)NC(CCC(=O)O)C(=O)O)cc1` (configuration not stated) returned an IC50 with L1210 [15] of 2.03 nM. In addition, the Ki on Dihydrofolate reductase stood at 0.0092 nM; on L1210 [16] it was 1100 nM.
